Assay results reported in patent US7265130B2, “NPY Y5 antagonist” (Shionogi & Co., Ltd., priority 1999, dated 2007).

What was measured:
human NPY Y5 receptor [1] = target: T1, human NPY Y5 receptor (Homo sapiens, UniProt Q15761); assay: Affinity for NPY Y5 receptor ([125I] peptide YY binding, CHO cell membranes); settings: inhibition of specific [125I] peptide YY binding, membranes of CHO cells expressing NPY Y5 receptor
T1 construct: expressed in transfected cells
T1 sequence (Q15761 1-445): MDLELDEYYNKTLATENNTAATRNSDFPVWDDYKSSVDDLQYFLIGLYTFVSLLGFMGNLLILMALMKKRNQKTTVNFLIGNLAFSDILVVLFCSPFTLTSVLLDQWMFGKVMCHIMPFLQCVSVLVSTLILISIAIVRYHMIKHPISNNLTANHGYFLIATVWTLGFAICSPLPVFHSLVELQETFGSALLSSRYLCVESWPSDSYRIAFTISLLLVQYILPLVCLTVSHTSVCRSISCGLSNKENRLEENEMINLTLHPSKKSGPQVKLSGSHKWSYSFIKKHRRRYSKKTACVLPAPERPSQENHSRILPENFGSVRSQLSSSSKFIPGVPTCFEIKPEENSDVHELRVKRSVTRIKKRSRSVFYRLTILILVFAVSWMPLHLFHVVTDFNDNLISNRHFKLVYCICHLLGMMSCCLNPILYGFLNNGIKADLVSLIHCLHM
In short: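 Membranes from CHO cells stably expressing human NPY Y5 receptor incubated with test compound and [125I] peptide YY (60 pM final) in HEPES-Hanks buffer with 0.1% BSA, pH 7.4, 25° C for 2 hours. Filter-bound radioactivity counted; non-specific binding with 200 nM peptide YY; IC50 against specific binding calculated.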

NPY Y1 receptor = target: T2, NPY Y1 receptor (Homo sapiens, UniProt P25929); assay: Affinity for NPY Y1 receptor (membranes from SK-N-MC cells); settings: membranes from Y1-expression cells (human neuroblastoma, SK-N-MC); read-out: Binding IC50 for NPY Y1 receptor
T2 construct: membranes prepared from Y1-expression cells (human neuroblastoma, SK-N-MC); endogenous in cells; host or cells: SK-N-MC human neuroblastoma cells (membranes)
T2 sequence (P25929 1-384): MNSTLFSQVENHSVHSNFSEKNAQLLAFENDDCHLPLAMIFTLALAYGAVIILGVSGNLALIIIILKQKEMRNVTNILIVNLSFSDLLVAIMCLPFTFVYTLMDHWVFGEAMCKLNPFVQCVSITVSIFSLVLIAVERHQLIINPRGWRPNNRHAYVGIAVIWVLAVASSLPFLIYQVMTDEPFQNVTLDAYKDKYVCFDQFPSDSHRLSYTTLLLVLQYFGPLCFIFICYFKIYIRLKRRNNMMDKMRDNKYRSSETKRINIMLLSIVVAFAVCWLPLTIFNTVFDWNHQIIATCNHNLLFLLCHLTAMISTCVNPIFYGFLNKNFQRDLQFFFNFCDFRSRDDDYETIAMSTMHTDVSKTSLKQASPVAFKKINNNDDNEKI
Description: (§1) The membranes prepared from the above CHO cells expressing NPY Y5 receptor, the compound of the present invention and 30,000 cpm [^125I] peptide YY (60 pM of final concentration: Amersham) were incubated in the assay buffer (20 mM HEPES-Hanks buffer containing 0.1% bovine serum albumin, pH 7.4) at 25° C. for 2 hours, and then the mixture was filtered with a glassfilter GF/C treated with polyethyleneimine. After the glassfilter was washed with 50 mM Tris-HCl buffer (pH 7.4), the radioactivity on the filter was measured with a gamma counter. The non-specific binding was detected in the presence of 200 nM of peptide YY. The 50% inhibitory concentration of the test compound against the specific peptide YY binding (IC50 value) was calculated (Inui, A. et al. Endocrinology 131, 2090-2096 (1992)).
(§2) Using the membranes prepared from Y1-expression cells (human neuroblastoma, SK-N-MC) and the membranes prepared from Y2-expression cells (human neuroblastoma, SMS-KAN), the experiment was carried out in a similar way as Experiment 1 to determine the affinity for NPY Y1 receptor and NPY Y2 receptor.

human NPY Y5 receptor [2] = target: T1, human NPY Y5 receptor; assay: cAMP production inhibitory activity in CHO cells; format: cell-based; settings: against 50 nM NPY inhibition of forskolin stimulated cAMP, CHO cells expressing human NPY Y5 receptor
In short: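 CHO cells expressing human NPY Y5 receptor preincubated 20 min at 37 °C with 2.5 mM IBMX, then with compound for 5 min. Stimulated with 50 nM NPY plus 10 μM forskolin for 30 min. Reaction stopped with 1N HCl; supernatant cAMP measured by EIA.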

NPY Y2 receptor = target: T3, NPY Y2 receptor (Homo sapiens, UniProt P49146); assay: Affinity for NPY Y2 receptor (membranes from SMS-KAN cells); settings: membranes from Y2-expression cells (human neuroblastoma, SMS-KAN); read-out: Binding IC50 for NPY Y2 receptor
T3 construct: membranes prepared from Y2-expression cells (human neuroblastoma, SMS-KAN); endogenous in cells; host or cells: SMS-KAN human neuroblastoma cells (membranes)
T3 sequence (P49146 1-381): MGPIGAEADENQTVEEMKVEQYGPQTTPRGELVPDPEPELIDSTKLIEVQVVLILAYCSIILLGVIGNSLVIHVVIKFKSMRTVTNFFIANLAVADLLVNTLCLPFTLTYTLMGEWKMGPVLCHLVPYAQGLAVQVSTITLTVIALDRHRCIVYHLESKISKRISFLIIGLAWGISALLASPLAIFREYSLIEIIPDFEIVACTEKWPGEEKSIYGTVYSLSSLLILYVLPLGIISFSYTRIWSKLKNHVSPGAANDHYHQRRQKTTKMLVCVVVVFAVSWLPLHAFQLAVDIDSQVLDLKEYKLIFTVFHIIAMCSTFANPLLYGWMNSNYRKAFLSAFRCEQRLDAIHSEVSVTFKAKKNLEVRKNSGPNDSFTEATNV
Description: as §1, §2

IC50 (human NPY Y5 receptor [1]) [nM] | IC50 (NPY Y1 receptor) [nM] | IC50 (human NPY Y5 receptor [2]) [nM] | IC50 (NPY Y2 receptor) [nM] | Compound
9.2 | ≥ 100000 | 150 | ≥ 100000 | CC(C)S(=O)(=O)NCCCCC(=O)Nc1ccc(N2C[C@@H](C)O[C@@H](C)C2)cc1 [Ia-3]
1.6 | ≥ 100000 | 43 | ≥ 100000 | C[C@@H]1CN(c2ccc(NC(=O)CCCCNS(=O)(=O)C(C)(C)C)cc2)C[C@H](C)O1 [Ia-5]
2.4 | ≥ 100000 | 23 | ≥ 100000 | CC(C)S(=O)(=O)NC1CCC(C(=O)Nc2ccc(N3C[C@@H](C)O[C@@H](C)C3)cc2)CC1 (some centres unmarked) [Ia-6]
1.9 | ≥ 100000 | 27 | ≥ 100000 | C[C@@H]1CN(c2ccc(NC(=O)C3CCC(NS(=O)(=O)C(C)(C)C)CC3)c(F)c2)C[C@H](C)O1 (some centres unmarked) [Ia-26]
0.73 | ≥ 100000 | 3.8 | ≥ 100000 | C[C@@H]1C[C@H](C)CN(c2ccc(NC(=O)C3CCC(NS(=O)(=O)C(C)(C)C)CC3)cc2)C1 (some centres unmarked) [Ia-37]
2.2 | ≥ 100000 | 9.3 | ≥ 100000 | C[C@@H]1CN(c2ccc(NC(=O)C3CCC(NS(=O)(=O)C(C)(C)C)CC3)cn2)C[C@H](C)O1 (some centres unmarked) [Ia-40]
1.7 | ≥ 100000 | 24 | ≥ 100000 | Cc1cc(NC(=O)C2CCC(NS(=O)(=O)C(C)C)CC2)ccc1N1C[C@@H](C)O[C@@H](C)C1 (some centres unmarked) [Ia-50]
1.3 | ≥ 100000 | 3.4 | ≥ 100000 | CC(C)S(=O)(=O)NC1CCC(C(=O)Nc2ccc(N3C[C@@H](C)O[C@@H](C)C3)nc2)CC1 (some centres unmarked) [Ia-51]
0.44 | ≥ 100000 | 9 | ≥ 100000 | Cc1cc(N2C[C@@H](C)O[C@@H](C)C2)ccc1NC(=O)C1CCC(NS(=O)(=O)C(C)C)CC1 (some centres unmarked) [Ia-54]
6.3 | ≥ 100000 | 75 | ≥ 100000 | C[C@@H]1CN(c2ccc(NC(=O)N3CCC(NS(=O)(=O)C(C)(C)C)CC3)cc2)C[C@H](C)O1 [Ia-67]
1.1 | ≥ 100000 | 22 | ≥ 100000 | C[C@@H]1CN(c2ccc(NC(=O)c3ccc(NS(=O)(=O)C(C)(C)C)cc3)cc2)C[C@H](C)O1 [Ia-124]

Further lines, the compound ahead of its results:

Compound | IC50 (human NPY Y5 receptor [1]) [nM] | IC50 (NPY Y1 receptor) [nM] | IC50 (human NPY Y5 receptor [2]) [nM] | IC50 (NPY Y2 receptor) [nM]
CC(C)(C)S(=O)(=O)NC1CCC(C(=O)NCc2cccc3ccccc23)CC1 (centres unmarked) [Compound I-154] | 1.1 | ≥ 100000 | 11 | ≥ 100000
CC(C)(C)S(=O)(=O)NC1CCC(C(=O)Nc2ccc3c(c2)CCC3)CC1 (centres unmarked) [Compound I-204] | 1 | ≥ 100000 | 6.3 | ≥ 100000
CC(C)NC(=O)c1cccc(NC(=O)C2CCC(NS(=O)(=O)C(C)(C)C)CC2)c1 (centres unmarked) [Compound I-205] | 2.9 | ≥ 100000 | 17 | ≥ 100000
CC(C)(C)S(=O)(=O)NC1CCC(C(=O)Nc2ccc(C(F)(F)F)cc2)CC1 (centres unmarked) [Compound I-212] | 0.67 | ≥ 100000 | 7.5 | ≥ 100000
CCC(C)c1ccc(NC(=O)C2CCC(NS(=O)(=O)C(C)(C)C)CC2)cc1 (centres unmarked) [Ia-12] | 0.94 | ≥ 100000 | 5.5 | ≥ 100000
CC(C)(C)S(=O)(=O)NC1CCC(C(=O)Nc2ccc(OC(F)(F)F)cc2)CC1 (centres unmarked) [Ia-17] | 0.1 | ≥ 100000 | 1.9 | ≥ 100000
CC(C)(C)S(=O)(=O)NC1CCC(C(=O)Nc2cccc(F)c2)CC1 (centres unmarked) [Ia-20] | 4.9 | ≥ 100000 | 100 | ≥ 100000
C[C@@H]1CN(c2ccc(NC(=O)[C@H]3CC[C@H](NS(=O)(=O)C(C)(C)C)CC3)cc2F)C[C@H](C)O1 [Ia-21] | 3.4 | ≥ 100000 | 35 | ≥ 100000
Cc1cc(NC(=O)[C@H]2CC[C@H](NS(=O)(=O)C(C)(C)C)CC2)ccc1N1C[C@@H](C)O[C@@H](C)C1 [Ia-22] | 3.1 | ≥ 100000 | 38 | ≥ 100000
Cc1cc(N2C[C@@H](C)O[C@@H](C)C2)ccc1NC(=O)C1CCC(NS(=O)(=O)C(C)(C)C)CC1 (some centres unmarked) [Ia-28] | 5.2 | ≥ 100000 | 130 | ≥ 100000
C[C@@H]1CN(c2ccc(NC(=O)C3CCC(NS(=O)(=O)C(C)(C)C)CC3)c(F)c2F)C[C@H](C)O1 (some centres unmarked) [Ia-29] | 1 | ≥ 100000 | 7.3 | ≥ 100000
C[C@@H]1CN(c2c(F)c(F)c(NC(=O)C3CCC(NS(=O)(=O)C(C)(C)C)CC3)c(F)c2F)C[C@H](C)O1 (some centres unmarked) [Ia-30] | 2.6 | ≥ 100000 | 25 | ≥ 100000
CC(C)(C)S(=O)(=O)NC1CCC(C(=O)Nc2ccc(Cl)cc2Cl)CC1 (centres unmarked) [Ia-31] | 3.8 | ≥ 100000 | 11 | ≥ 100000
CC(C)(C)S(=O)(=O)NC1CCC(C(=O)Nc2ccc(Cl)c(Cl)c2)CC1 (centres unmarked) [Ia-32] | 0.52 | ≥ 100000 | 6.7 | ≥ 100000
COc1ccc(NC(=O)C2CCC(NS(=O)(=O)C(C)(C)C)CC2)cc1OC (centres unmarked) [Ia-33] | 1.8 | ≥ 100000 | 64 | ≥ 100000
COc1ccc(NC(=O)C2CCC(NS(=O)(=O)C(C)(C)C)CC2)cc1Cl (centres unmarked) [Ia-39] | 1.5 | ≥ 100000 | 3.5 | ≥ 100000
CC(C)(C)S(=O)(=O)NC1CCC(C(=O)Nc2ccc3oc(=O)ccc3c2)CC1 (centres unmarked) [Ia-62] | 1.1 | ≥ 100000 | 29 | ≥ 100000
CC(C)(C)S(=O)(=O)Nc1ccc(C(=O)Nc2ccc3ncsc3c2)cc1 [Ia-126] | 2.3 | ≥ 100000 | 58 | ≥ 100000
CC(C)(C)S(=O)(=O)Nc1ccc(C(=O)Nc2ccc(N3CC=CC3)cc2)cc1 [Ia-139] | 1.9 | ≥ 100000 | 25 | ≥ 100000
CC(C)S(=O)(=O)NC1CCC(C(=O)Nc2ccc(C(F)(F)F)cc2)CC1 (centres unmarked) [Ia-140] | 1 | ≥ 100000 | 24 | ≥ 100000
CC(C)(C)S(=O)(=O)NC1CCC(C(=O)Nc2ccc(C(F)(F)F)cn2)CC1 (centres unmarked) [Ia-178] | 4.6 | ≥ 100000 | 16 | ≥ 100000
